According to PubChem BioAssay AID179 (DTP/NCI, 2004):
“And” between values parts separate entries of the source, which are not always exact repeats. Equal values may be shown once. The source made the active and inactive calls.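 How the source made its calls: active means compounds giving half or more protection of infected cells from virus-caused growth loss, again on retest; inactive means the rest.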

System: CEM cells HIV-1 protection, formazan growth assay
Experiment: NCI AIDS Antiviral Assay
Conditions: for IC50: measured here: growth of uninfected CEM cells
In short: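 Human CEM cells, uninfected and HIV-1-infected, received five drug concentrations, and growth was read by soluble formazan assay. Compounds giving at least 50% protection were retested; reproducible 100% protection defined confirmed active.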

NNC(=O)CCC(=O)Nc1cc(Cl)c(Cl)cc1Cl
EC50: > 115 µM | IC50: > 115 µM

CCCCCCCCC#CCCCCCCC(F)C(=O)O (stereo not drawn)
outcome: inactive

CCOc1ccc2nc(NC(=O)/C(CC(=O)CC(C3=C(O)c4ccccc4CC3=O)c3ccccc3)=N\O)sc2c1 (stereo not drawn)
EC50: > 4.79 µM | IC50: > 4.79 µM

Cc1cc2c(c(C(C)(C)C)c1)O[P+](=O)Oc1c(cc(C)cc1C(C)(C)C)C2
EC50: > 18.6 µM | IC50: > 18.6 µM

S=c1[nH]nc2nc(Nc3ccccc3)nc(Nc3ccccc3)n12
EC50: > 21.4 µM | IC50: > 21.4 µM

C(=Nc1cnc2ccccc2c1)c1ccncc1
EC50: > 288 µM | IC50: 66.1 µM

O=C1c2cc3c(cc2CC12Cc1ccc4c(c1C2=O)CCCC4)CCCC3 (stereo not drawn)
EC50: > 200 µM | IC50: > 200 µM

O=S(=O)(O)Cc1ccc([As](=O)(O)O)cc1
EC50: > 200 µM | IC50: 129 µM

NCCCC[C@H](NC(=O)[C@H](CS)NC(=O)[C@@H](N)Cc1cnc[nH]1)C(=O)N[C@H](Cc1ccc(O)cc1)C(=O)N[C@@H](Cc1c[nH]c2ccccc12)C(=O)N[C@@H](Cc1c[nH]c2ccccc12)C(N)=O
EC50: > 200 µM | IC50: > 200 µM

FC(F)(F)c1cc(NC2=NCCN=C(Nc3cc(C(F)(F)F)cc(C(F)(F)F)c3)SS2)cc(C(F)(F)F)c1
EC50: > 200 µM | IC50: 3.16 µM

CN(C)[C@@H]1C(=O)C(C(=O)NCNc2nc3n[nH]nc3c(=O)[nH]2)=C(O)[C@@]2(O)C(=O)C3=C(O)c4c(O)cccc4[C@@](C)(O)[C@H]3C[C@@H]12
EC50: > 0.891 µM | IC50: 0.562 µM

N=S(c1ccccc1[N+](=O)[O-])c1ccccc1[N+](=O)[O-]
EC50: > 200 µM | IC50: 0.631 µM and 0.589 µM

CCOC(=O)Nc1cc2c(c(N)n1)N=C(c1ccccc1)CO2
EC50: > 16.6 µM | IC50: 0.0933 µM

COc1ccc2nc(NC(=O)C(=O)NNC(=O)c3ccncc3)sc2c1
EC50: > 174 µM | IC50: 16.2 µM

O=C(N/N=C\c1ccc([N+](=O)[O-])cc1)c1ccccc1Nc1ccccc1C(=O)N/N=C/c1ccc([N+](=O)[O-])cc1
EC50: 91.2 µM | IC50: > 200 µM

COc1cc(C(=O)NCCS(=O)(=O)O)cc(OC)c1OC
EC50: > 724 µM | IC50: 631 µM

O=C(Nc1nc(C23CC4CC(CC(C4)C2)C3)cs1)c1cc2cc(Cl)ccc2oc1=O
EC50: > 200 µM | IC50: > 200 µM

O=S(=O)(O)CCC(O)S(=O)(=O)O (stereo not drawn)
EC50: > 200 µM | IC50: 120 µM

CC(=O)Nc1ccc(C(=O)N2N=C(C)/C(=C/c3ccc(O)cc3)C2=O)cc1
EC50: > 37.2 µM | IC50: > 37.2 µM

CC1CN=C(N(C)C(=O)Nc2ccc(Cl)cc2)S1 (stereo not drawn)
outcome: inactive

CCCN=C(N)C(C)=O
EC50: > 1950 µM | IC50: > 1950 µM

O=[N+]([O-])c1cccc2nsnc12
EC50: > 145 µM | IC50: 23.4 µM

N#CC(C(=O)C(=O)Nc1ccc(Cl)c(Cl)c1)c1ccc(Cl)cc1 (stereo not drawn)
EC50: > 135 µM | IC50: 107 µM

OC1(C2(O)CCC2)CCC1
EC50: > 200 µM | IC50: > 200 µM

CCOC(=O)c1ccc(N2CCN(c3c(C)nc(N)nc3N)CC2)cc1
EC50: > 100 µM | IC50: 0.0316 µM

CC12CCC(=O)N1c1cc(Cl)ccc1N2 (stereo not drawn)
EC50: > 115 µM | IC50: > 115 µM

NNC(=O)c1ccccc1SSc1ccccc1C(=O)NN
EC50: 0.537 µM | IC50: 3.55 µM

CO[C@@H]1C[C@H]2[C@@H]3CC[C@H]([C@H](C)CO)[C@@]3(C)CC[C@@H]2[C@@]2(C)CC[C@H]3C[C@]312
EC50: > 174 µM | IC50: 81.3 µM

NCc1ccc(-c2ccc(CN)s2)s1
EC50: > 28.2 µM | IC50: 13.2 µM

C=CCCC1(CC(Sc2ccccc2)P(=O)(c2ccccc2)c2ccccc2)OCCO1 (stereo not drawn)
EC50: > 200 µM | IC50: > 200 µM

NCCCc1nonc1C(=O)O
EC50: > 200 µM | IC50: > 200 µM

CC(=O)NC(=O)C(C(C)=O)c1ccccc1 (stereo not drawn)
EC50: > 1150 µM | IC50: > 1150 µM

O=S1(=O)C[C@H](O)[C@H](O)CS1
EC50: 8.32 µM | IC50: 75.9 µM

Cc1cc2c(cc1C)N1Cc3c(ccc(C)c3C)N(C2)C1 (tested in a mixture with another compound)
outcome: inactive

COc1ccccc1/C=C1\NC(=S)N(/C=C2\C(=O)Oc3ccccc3C2=O)C1=O
EC50: > 200 µM | IC50: 81.3 µM

O=C1c2ccc([N+](=O)[O-])cc2C(=O)N1CC[P+](c1ccccc1)(c1ccccc1)c1ccccc1
EC50: > 200 µM | IC50: > 200 µM

O=c1c2cc([N+](=O)[O-])ccc2oc2ccc([N+](=O)[O-])cc12
EC50: > 13.2 µM | IC50: > 13.2 µM

Cc1ccc(SCC(CF)OCn2cnc3c(=O)[nH]c(N)nc32)cc1 (stereo not drawn)
EC50: > 20 µM | IC50: > 20 µM

O=C(CC(=O)n1nc(-c2ccccc2)c(N=Nc2ccc(Cl)cc2)c1-c1ccccc1)Nc1ccc(Cl)cc1
EC50: > 18.2 µM | IC50: > 18.2 µM

N#CC(C#N)=Cc1ccccc1F
EC50: > 102 µM | IC50: 17.4 µM

CCOC(=O)c1ccc(CSc2ccc(Cl)cc2)c([N+](=O)[O-])c1
EC50: > 102 µM | IC50: > 102 µM

O=C1NCC(c2ccccc2)(c2ccccc2)O1
EC50: > 200 µM | IC50: 151 µM

CC(C)(C)CC(C)(C)c1cc2c(O)c(c1)Cc1cc(C(C)(C)CC(C)(C)C)cc(c1O)Cc1cc(C(C)(C)CC(C)(C)C)cc(c1O)Cc1cc(C(C)(C)CC(C)(C)C)cc(c1O)Cc1cc(C(C)(C)CC(C)(C)C)cc(c1O)Cc1cc(C(C)(C)CC(C)(C)C)cc(c1O)Cc1cc(C(C)(C)CC(C)(C)C)cc(c1O)Cc1cc(C(C)(C)CC(C)(C)C)cc(c1O)C2
EC50: > 2.04 µM | IC50: > 2.04 µM

CC(=O)NCCC1CN(C(=O)/C=C\C#C[Si](C)(C)C)c2ccccc21 (stereo not drawn)
EC50: > 200 µM | IC50: 19.5 µM

CCOP(=S)(NN=C1CCC(C(C)(C)C)CC1)OCC (stereo not drawn)
EC50: > 200 µM | IC50: 89.1 µM

CCOC(=O)c1ccc(N2N=C3C(=CC(=O)c4ccccc43)SCC2=O)cc1
EC50: > 47.9 µM | IC50: 19.5 µM

CCOC(=O)C(NC(=O)c1ccccc1)(Nc1ccc(S(=O)(=O)Nc2nc(C)cc(C)n2)cc1)C(F)(F)F (stereo not drawn)
EC50: > 200 µM | IC50: > 200 µM

C=C1C2CCC3(CCC4C5(C)CCCC4(C=[N+](CCO)C5)C3C2)C1O (stereo not drawn)
outcome: inactive

COC(=O)/C(C#N)=C(/NCCN)Nc1ccccc1
EC50: > 200 µM | IC50: > 200 µM

[N-]=[N+]=Nc1c(-c2ccccc2)c(=O)n(-c2ccccc2)c2ccccc12
outcome: inactive

CCOC(=O)/C(C#N)=C/c1ccc(CO)o1
EC50: > 200 µM | IC50: > 200 µM

OC1CCSc2ccccc21 (stereo not drawn)
EC50: > 200 µM | IC50: > 200 µM

Nc1nc2c(c(=O)[nH]1)C(c1ccccc1)CC(=O)N2 (stereo not drawn)
EC50: > 200 µM | IC50: > 200 µM

COC1OC(CS(=O)(=O)O)C(O)C(O)C1O (stereo not drawn)
outcome: inactive

Cc1nc(Nc2ccc(Cl)c(Cl)c2)sc1C(/C=C/c1ccc2c(c1)OCO2)=N/Nc1ccc([N+](=O)[O-])cc1[N+](=O)[O-]
EC50: > 2.34 µM | IC50: > 2.34 µM

C=C(/C=C/C=C(\CO)CCC=C(C)C)[C@H]1CCC2([C@H](CCCO)/C(=C(/C)C=O)CC[C@]2(C)O)[C@H]1O (stereo partly drawn)
EC50: > 263 µM | IC50: 195 µM

O=[N+]([O-])c1nccn1CCCNc1c2ccccc2nc2ccccc12
outcome: inactive

COc1ccc(C(=O)/C=C/c2ccc(OCCCOc3ccc(/C=C/C(=O)c4ccc(OC)c(OC)c4)cc3)cc2)cc1OC
EC50: > 200 µM | IC50: > 200 µM

O=C1c2cn[nH]c2N=C(Nc2ccccc2)C1N=Cc1ccc([N+](=O)[O-])cc1 (stereo not drawn)
EC50: > 200 µM | IC50: 102 µM

C/C(=N\NC(=S)N1CCCCC1)c1cccc(C)n1
EC50: > 0.2 µM | IC50: 0.00617 µM
